# Target: Hypoxia-inducible factor 1-alpha inhibitor (Homo sapiens, UniProt Q9NWT6)
# Assay: Inhibition of human recombinant FIH1
# Hypoxia-inducible factor 1-alpha inhibitor, sequence (Q9NWT6 whole entry): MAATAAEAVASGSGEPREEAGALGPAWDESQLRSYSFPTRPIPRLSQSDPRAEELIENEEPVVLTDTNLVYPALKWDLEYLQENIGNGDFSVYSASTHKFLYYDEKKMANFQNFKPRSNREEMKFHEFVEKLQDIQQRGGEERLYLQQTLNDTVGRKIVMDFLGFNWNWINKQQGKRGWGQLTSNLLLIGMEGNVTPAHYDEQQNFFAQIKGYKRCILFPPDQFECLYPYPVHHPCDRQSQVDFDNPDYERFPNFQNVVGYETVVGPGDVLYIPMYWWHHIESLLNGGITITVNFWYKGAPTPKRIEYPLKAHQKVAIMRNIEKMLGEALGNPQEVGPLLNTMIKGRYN
row,SMILES,IC50 [µM]
1,COc1ccccc1OCc1cn2c(-c3ccc4ccccc4n3)nnc2s1,41.4
2,COc1ccccc1/C=C1\SC(=S)N(CCC(=O)Nc2ccc(S(N)(=O)=O)cc2)C1=O,32.1
3,O=C(O)CCN1C(=O)/C(=C\c2ccc(-c3ccc(Cl)cc3)o2)SC1=S,66
4,CCSc1ccc(-c2nn(-c3ccccc3)cc2/C=C2/SC(=S)N(CC(=O)O)C2=O)cc1,36.2
5,O=C(CCN1C(=O)/C(=C\C=C\c2ccco2)SC1=S)Nc1cccc2nonc12,48.6
6,COc1ccccc1/C=C/c1cn2c(-c3ccc4ccccc4n3)nnc2s1,47.5

# Second part, the molecule after the results:
row,IC50 [µM],SMILES
1,73.1,COc1cccc(/C=C2\SC(=S)N(CCC(=O)Nc3cccc4nonc34)C2=O)c1
2,45.3,COc1cccc(/C=C2\SC(=S)N(CC(=O)Nc3cccc4nonc34)C2=O)c1

# Source: ChEMBL document CHEMBL1152666, “Structure-based virtual screening approach to the discovery of novel inhibitors of factor-inhibiting HIF-1: identification of new chelating groups for the active-site ferrous ion” (Bioorg Med Chem, 2009)
